# Read-outs that look alike come from different tables or passages of the source.
# Key:
# [1] = test system: Mycobacterium tuberculosis (Mtb) H37Rv; assay: Mtb minimal bactericidal concentration (MBC), plating from MIC plates; format: cell-based; conditions: Table 4, read-out: Mtb MBC
# Experimental: Aliquots from sample wells (MIC and higher) from the MIC plates were diluted 1:10 and plated on 7H10 agar plates. Plates were incubated at 37° C. for 3-4 weeks, CFU was enumerated.
# [2] = test system: hypoxia induced non-replicating persistent (NRP) Mtb cells; assay: Activity against hypoxia induced non-replicating persistent (NRP) Mtb (HBC, Wayne model); format: cell-based, Mycobacterium tuberculosis
# [3] = 1 μM
# Experimental: Viability of cryopreserved hepatocytes was determined using trypan blue and the cell conc. was adjusted to 10^6 cells per mL with buffer (KHB buffer). 1 μM compound (in Acetonitrile; 0.01% DMSO) was incubated with 500 μL of hepatocyte cells (1 million cells per mL) in a NUNC plate. […] Supernatants were analyzed using LC-MS/MS for substrate depletion.
# [4] = in vitro; format: in vitro ADME; conditions: plasma
# Experimental: Protein binding is measured using the equilibrium dialysis technique. Compound is added to 10% plasma giving a concentration of 20 μM and dialysed with isotonic buffer for 18 hours at 37° C. The plasma and buffer solutions are analysed using generic LCUVMS and the first apparent binding constant for the compound derived. The binding constant is then used to determine the % free in 100% plasma.
# [5] = in vivo; conditions: Wistar, rat, in vivo
# Experimental: PK of azaindoles compounds was performed in mice (healthy and infected) and rats. Mice were pretreated with 100 mg/kg ABT two hours prior to the compound administration. PK data from healthy mice was used to design the dosing regimen for the efficacy study while, information from infected mice was used for the PK-PD analysis.
# All oral administration was performed as suspensions in 0.5% HPMC, and 0.1% Tween 80. […] All blood samples were collected via sapheneous vein into Microvette CB300® (Starstedt, Germany) tubes coated with Lithium-Heparin, and plasma was prepared from the collected blood by centrifugation.
# (§1) One mg/mL stock solution of each compound was prepared in Dimethylsulfoxide (DMSO) and diluted two-fold with acetonitrile. A sixteen point calibration curve was utilized for each analyte, and the standard curves ranged from 0.001 to 40 μg/mL. Plasma/BAL samples were precipitated by adding chilled acetonitrile (1:10 v/v) containing carbamazepine as internal standard (250 ng/mL). Samples were vortexed, and centrifuged at 4000 rpm for 30 min at 10° C. The resulting supernatant was mixed with mobile phase (50% acetonitrile in water with 0.1% formic acid). […] of sample was injected on to a liquid chromatographic system (Waters-ACQUTY UPLC) coupled to triple quadrupole mass spectrometer (Waters-ACQUTY-TQD; MS/MS). Samples were acquired in positive ion mode and detected by multiple reaction monitoring (MRM). Concentrations of the analyte were determined from a standard curve obtained by plotting known concentrations of the analyte against peak area ratios (analyte/internal standard peak response).
# PK analysis of the plasma concentration-time relationships were performed with WinNonlin Phoenix Software (version 6.2; Pharsight, USA). […] The maximum concentration of drug in plasma (Cmax), time to Cmax (Tmax), elimination half-life (t1/2), and AUC from time zero to infinity (AUC0-∞) were estimated. […] Minimum of three sample points in the terminal slope were used to estimate to calculate half-life.
# [6] = in vivo; conditions: BALB/c, mouse, 100 mg/kg; for AUC(0-inf) / Cmax: po; for AUC(0-inf): AUC0-∞
# Experimental: ELF PK was performed in healthy mice (three mice/group) as described previously (Solapure et. al, 2013) after administration of a single oral dose of 100 mg/kg compound formulated in 0.5% HPMC, and 0.1% Tween 80 suspensions. […] Broncho-Alveolar Lavage (BAL) was performed after tracheotomy using 0.7 mL of ice-cold PBS. Urea estimation kit, DIUR-500 (Bio-assay Systems, U.S.A) was used for urea estimation in plasma and BAL samples. Volume of ELF was calculated after normalizing the urea concentration in BAL with that of plasma as described in Marry et. al, 2011. Plasma and BAL samples were stored at −20° C. until analysis using LC-MS/MS.
# as §1
# Volume of ELF in the BAL samples was calculated as volume of BAL multiplied by the ratio of urea concentrations in BAL and plasma as described (Solapure et. al, 2013; Marry et. al, 2011) The compound concentration in ELF was calculated by multiplying concentration in BAL samples by the ratio of BAL volume to the ELF volume. AUC0-∞ in plasma and ELF were calculated by Non-compartmental analysis WinNonlin Phoenix Software (version 6.2; Pharsight, USA). Free plasma AUC was calculated after multiplying concentrations at each time point by the free fraction in plasma. Lung ELF penetration ratio was calculated as a ratio of AUC0-∞ in ELF to free AUC0-∞ in free plasma/total plasma during the same time interval. This ratio, measured in healthy mice after single dose administration, was assumed to remain constant during multiple dose efficacy study in the infected mice. Sparse sample analysis in WinNonlin was used for estimating standard error (SE) associated with AUC estimate.
# [7] = pH 7.4
# Experimental: Octanol-water partition coefficient (Log D) based on the shake-flask principle has been measured as follows. The aqueous solution used was 10 mM sodium phosphate buffer pH 7.4. 20 μL of 10 mM compound dissolved in DMSO was taken in glass vial plate. DMSO was removed using GeneVac. 435 μL of octanol was added using Tomtec, stirred for 5 min to dissolve. Further mixing was done by inversion for 5 h at 25° C., subsequently centrifuged for 30 min at 3000 RPM. LC/UV/APPI/MS quantitation of both aqueous and octanol layers was carried out. Log D value was determined according to the following equation.
# [8] = test system: CYP1A2, CYP2C9, CYP2C19, CYP2D6, CYP3A4; conditions: human
# [9] = test system: panel of human targets and cardiac channels
# [10] = infected BALB/c mice, acute efficacy, +ABT
# [11] = infected BALB/c mice, chronic efficacy, multiple oral doses 30 mg/kg, +ABT
# [12] = in vivo; conditions: BALB/c, mouse, po
compound,measurement,setting,value
"COc1ncnc(Cn2cc(C(=O)NCCF)c3ncccc32)c1C [Compound 3, N-(2-fluoroethyl)-1-((6-methoxy-5-methylpyrimidin-4-yl)methyl)-1H-pyrrolo[3,2-b]pyridine-3-carboxamide]",MBC,[1],1.56 to 3.12 µM
same,activity against non-replicating Mtb under hypoxic conditions,[2]; cidality measured as HBC in Wayne model,moderate activity
same,Mtb HBC,"[2]; hypoxic conditions, Wayne model, Table 4",50 µM
same,Human CLpred hepatocytes (% LBF),[3],6.0 % LBF
same,Rat CLpred hepatocytes (% LBF),[3],13 % LBF
same,"fraction unbound at 18 h, 20 μM",[4]; human,0.05 to 0.22
same,Human PPB (% free),[4],9.8 % free
same,AUC(0-t),"[5]; iv, 0.5 mg/kg",1.6 ± 0.29 µM·h
same,C0h,"[5]; iv, 0.5 mg/kg",1.76 ± 0.42 µM
same,Vd,"[5]; iv, 0.5 mg/kg",1.05 ± 0.28 L/kg
same,clearance,"[5]; iv, 0.5 mg/kg",15.5 ± 3.21 mL/min/kg
same,half-life,"[5]; iv, 0.5 mg/kg",2.22 ± 2.51 h
same,AUC(0-inf),"[5]; po, 30 mg/kg",101 µM·h
same,Cmax,"[5]; po, 30 mg/kg",15 µM
same,F,"[5]; po, 30 mg/kg",96%
same,Tmax,"[5]; po, 30 mg/kg",2 h
same,half-life,"[5]; po, 30 mg/kg",2.01 h
same,Kp,[6]; ELF penetration ratio (based on free plasma AUC),7.29 to 26.1
same,Kp,[6]; ELF penetration ratio (based on total plasma AUC),0.6 to 1.97
same,AUC(0-inf),[6]; ELF,713 ± 176 µM·h
same,AUC(0-inf),[6]; Plasma,573 ± 78.8 µM·h
same,AUC(0-inf),[6]; fPlasma,43.5 ± 5.96 µM·h
same,Cmax,[6]; ELF,74 ± 3.77 µM
same,Cmax,[6]; Plasma,63.8 ± 7.37 µM
same,Cmax,[6]; fPlasma,4.85 ± 0.56 µM
same,logD,[7],2.1
same,CYP inhibition,[8],>50 µM
same,Secondary pharmacology hits IC50,[9],No significant hits
same,in vitro safety profiling,[9],no major safety liabilities
same,% T > MIC,[10]; multiple oral doses 50 mg/kg,58%
same,% fT > MIC,[10]; multiple oral doses 50 mg/kg,23%
same,% T > MIC,[10]; multiple oral doses 100 mg/kg,66%
same,% fT > MIC,[10]; multiple oral doses 100 mg/kg,41%
same,% T > MIC,[11],92%
same,% fT > MIC,[11],29%
same,AUC,[12],200 to 700 µM·h
same,AUC(0-inf),[12]; 30 mg/kg,252 ± 64 µM·h
same,Cmax,[12]; 30 mg/kg,32.8 ± 14.4 µM
same,half-life,[12]; 30 mg/kg,4.46 ± 0.16 h
